{
  "source": "paper PMC6627374",
  "about": "“Effects of the Pentapeptide P33 on Memory and Synaptic Plasticity in APP/PS1 Transgenic Mice: A Novel Mechanism Presenting the Protein Fe65 as a Target” (International Journal of Molecular Sciences, 2019)",
  "key": {"GFAP-positive astrocytes": {"tested_on": "GFAP-positive astrocytes", "experiment": "GFAP immunohistochemistry, astrocyte density", "format": "in vivo, mouse", "details": "APP/PS1-vehicle vs. WT-vehicle, WT-P33, APP/PS1-P33; whole HC and CTX; 5 mg∙kg^−1 i.p., six months", "method": "(§1) For this study, three-month-old male and female WT and APP/PS1 mice (n = 37) were used. Four groups were defined: WT-vehicle (physiological saline) (male n = 4; female n = 6), WT-P33 (male n = 6; female n = 5), APP/PS1-vehicle (male n = 3; female n = 5), and APP/PS1-P33 (male n = 6; female n = 2). Animals were subjected to intraperitoneal (i.p.) injections of P33 (5 mg∙kg^−1) for five days per week, over a course of six months. The mice were kept in groups under constant temperature (23 ± 0.5 °C), lighting (12-h/12-h light/dark cycle, lights on at 7:00 a.m.), and humidity (~50%). Standard mouse chow and tap water were supplied ad libitum. All behavioral experiments were performed in the light period. Handling was done daily at the same time.\n(§2) Mice (five animals per group) were anaesthetized with chloral-hydrate (1 mg∙kg^−1) and perfused transcardially with PBS, followed by ice-cold 4% paraformaldehyde. The brains were removed, post-fixed in the same fixative, and immersed in a 30% sucrose solution containing 0.01% sodium-azide. […]\n(§3) Slides were scanned by a digital slide scanner (Mirax Midi, 3DHistech Ltd., Budapest, Hungary), equipped with a Pannoramic Viewer 1.15.4, CaseViewer 2.1 program and a QuantCenter, HistoQuant module (3DHistech Ltd., Budapest, Hungary). For quantification, all of the sections were analyzed. […] Antibody-positive cell types from the ROIs were counted and quantified. […]"}, "Iba1-positive microglia": {"tested_on": "Iba1-positive microglia", "experiment": "Iba1 immunohistochemistry, microglia density", "format": "in vivo, mouse", "details": "APP/PS1-vehicle vs. WT-vehicle, WT-P33, APP/PS1-P33; HC and CTX; 5 mg∙kg^−1 i.p., six months", "method": "as §1, §2, §3"}},
  "note": "Where a SMILES comes first, the peptide text is derived from it.",
  "data": [
    {"smiles": "C[C@@H](N)C(=O)N1CCC[C@@H]1C(=O)N[C@H](C)C(=O)N1CCC[C@@H]1C(=O)N[C@H](CCC(=O)O)C(N)=O", "note": "[P33] (HELM PEPTIDE1{[dA].[dP].[dA].[dP].[dE].[am]}$$$$V2.0)", "values": [
      {"measurement": "density of hyperreactive (GFAP-positive) astrocytes (in words)", "setting": "GFAP-positive astrocytes", "value": "higher in the whole HC and CTX of the APP/PS1-vehicle group, than in the other three groups"},
      {"measurement": "density of Iba1-positive microglia (in words)", "setting": "Iba1-positive microglia", "value": "higher in the APP/PS1-vehicle treated mice than in the other groups"}
    ]}
  ]
}
